In brackets after ≈: the same amount, converted by molar mass.
Columns and labels:
[1] = system: Escherichia coli (NCIM 2065); assay: Antibacterial susceptibility test, microbroth dilution MIC; type: cell-based; details: E. Coli (NCIM 2065); mean ± SD
MRSA (NCIM 5021) [2] = assay: as above; type: cell-based, methicillin-resistant Staphylococcus aureus; details: mean ± SD
MRSA (ATCC43300) [3] = assay: as above; type: cell-based, methicillin-resistant Staphylococcus aureus; details: mean ± SD
[4] = system: Escherichia coli (NCIM 2065); assay: Minimum bactericidal concentration (MBC); type: cell-based; details: E. Coli (NCIM 2065); for MBC/MIC: ratio ≤2 bactericidal, ≥4 tolerance
Protocol: (§1) MBC can be defined as the minimum concentration of a compound required to kill the bacteria over a fixed period under precise conditions. […] Colonies were counted, and colony forming unit (CFU) per milliliter was calculated.

MRSA (ATCC43300) [5] = assay: Minimum bactericidal concentration (MBC); type: cell-based, methicillin-resistant Staphylococcus aureus
Protocol: as §1

MRSA (NCIM 5021) [6] = assay: Minimum bactericidal concentration (MBC); type: cell-based, methicillin-resistant Staphylococcus aureus
Protocol: as §1

E. coli ParE enzyme = biological target: T1, E. coli ParE enzyme (Escherichia coli, UniProt P20083); assay: E. coli ParE ATPase enzyme inhibition assay (ProFoldin kit, malachite green); type: biochemical; details: ATPase activity, mean ± SD (n = 3)
T1 construct: purchased ProFoldin, Hudson, United States
T1 sequence (P20083 whole entry): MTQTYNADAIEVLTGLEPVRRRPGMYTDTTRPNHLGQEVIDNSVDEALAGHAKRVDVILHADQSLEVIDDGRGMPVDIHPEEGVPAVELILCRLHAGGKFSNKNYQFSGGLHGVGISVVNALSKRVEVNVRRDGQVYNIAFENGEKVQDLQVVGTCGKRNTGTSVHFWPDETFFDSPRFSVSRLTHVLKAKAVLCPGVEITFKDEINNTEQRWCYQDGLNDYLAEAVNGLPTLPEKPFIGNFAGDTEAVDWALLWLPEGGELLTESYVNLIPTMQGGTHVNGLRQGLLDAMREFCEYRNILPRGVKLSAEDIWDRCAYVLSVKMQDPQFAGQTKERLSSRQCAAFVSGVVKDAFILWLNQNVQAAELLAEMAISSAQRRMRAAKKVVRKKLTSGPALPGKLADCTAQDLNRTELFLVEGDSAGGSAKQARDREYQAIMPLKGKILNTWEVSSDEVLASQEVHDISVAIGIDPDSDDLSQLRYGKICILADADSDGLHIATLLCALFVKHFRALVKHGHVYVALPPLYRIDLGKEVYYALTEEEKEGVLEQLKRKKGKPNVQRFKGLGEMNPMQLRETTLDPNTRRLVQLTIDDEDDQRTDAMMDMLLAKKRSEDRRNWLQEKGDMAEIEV
T1 sequence (P0AFI2 whole entry, further chain): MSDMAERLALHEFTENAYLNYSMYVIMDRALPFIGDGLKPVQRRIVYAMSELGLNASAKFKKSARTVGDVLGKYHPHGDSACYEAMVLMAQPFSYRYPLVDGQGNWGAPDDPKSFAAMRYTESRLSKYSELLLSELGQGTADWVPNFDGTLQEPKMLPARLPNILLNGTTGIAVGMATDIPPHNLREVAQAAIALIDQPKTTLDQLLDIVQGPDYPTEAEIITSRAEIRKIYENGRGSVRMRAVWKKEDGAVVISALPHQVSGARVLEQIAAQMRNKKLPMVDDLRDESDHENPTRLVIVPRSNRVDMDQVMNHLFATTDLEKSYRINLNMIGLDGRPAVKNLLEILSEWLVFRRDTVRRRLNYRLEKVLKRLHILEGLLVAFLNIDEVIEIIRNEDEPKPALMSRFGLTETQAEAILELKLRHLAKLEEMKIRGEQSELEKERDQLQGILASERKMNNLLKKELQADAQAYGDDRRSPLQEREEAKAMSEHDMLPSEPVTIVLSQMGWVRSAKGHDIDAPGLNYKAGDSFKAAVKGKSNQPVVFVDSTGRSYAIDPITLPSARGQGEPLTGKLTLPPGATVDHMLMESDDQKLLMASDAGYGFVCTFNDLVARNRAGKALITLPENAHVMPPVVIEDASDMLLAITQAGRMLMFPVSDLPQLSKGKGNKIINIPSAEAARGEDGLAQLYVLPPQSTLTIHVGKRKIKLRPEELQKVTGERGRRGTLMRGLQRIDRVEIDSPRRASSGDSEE
Protocol: The assay was performed as per the standard protocol provided by the ProFoldin. […] ParE hydrolyzes ATP as the source of molecular energy to perform decatenation reactions. Fluoroquinolones and aminocoumarins usually block ATPase activity to hinder the biological activities of topoisomerase II. Thus, the topoisomerase ATPase assay can be used for high-throughput screening of topoisomerase inhibitors. The ATPase activity of the E. coli ParE enzyme was based on the detection of inorganic phosphate produced by the hydrolysis of ATP in the presence of DNA. The phosphate is detected using a microplate reader at an absorbance wavelength of 650 nm. The selected compounds were tested for the inhibition of ATPase activity of ParE enzyme. […] The reaction mixture was incubated for 1 h at 37°C and then quenched with 45 μL of Dye. Incubate for 5 min, and the absorbance was measured at 650 nm. The IC50 values were determined from the absorbance readings using no enzyme and no compound controls. They were calculated using the non-linear regression curve fit method.

[7] = system: Klebsiella pneumonia (NCIM 2706); parameters: method as in Yele et al., 2020, 2021; details: ref Yele et al., 2020, 2021; cited from earlier work
[8] = system: Pseudomonas aeruginosa (NCIM 2036); parameters: method as in Yele et al., 2020, 2021; details: ref Yele et al., 2020, 2021; cited from earlier work
[9] = system: Escherichia coli (NCIM 2567); parameters: method as in Yele et al., 2020, 2021; details: ref Yele et al., 2020, 2021; cited from earlier work
[10] = system: Staphylococcus epidermis (NCIM 2493); parameters: method as in Yele et al., 2020, 2021; details: ref Yele et al., 2020, 2021; cited from earlier work
[11] = system: Staphylococcus aureus (NCIM 5022); parameters: method as in Yele et al., 2020, 2021; details: ref Yele et al., 2020, 2021; cited from earlier work
[12] = system: Bacillus subtilis (NCIM 2545); parameters: method as in Yele et al., 2020, 2021; details: ref Yele et al., 2020, 2021; cited from earlier work
[13] = system: Mycobacterium tuberculosis (NCIM 2984); parameters: method as in Yele et al., 2020, 2021; details: ref Yele et al., 2020, 2021; cited from earlier work
E. coli = assay: Checkerboard synergy with FDA approved drugs; type: cell-based, Escherichia coli
[14] = FIC of compound 5 in combination
[15] = FIC of compound 21 in combination with the row's drug
[16] = FIC of the drug in combination with compound 5
[17] = FIC of the drug in combination with compound 21

Row | SMILES | Minimum inhibitory concentration [1] [µg/mL] | Minimum inhibitory concentration (MRSA (NCIM 5021) [2]) [µg/mL] | Minimum inhibitory concentration (MRSA (ATCC43300) [3]) [µg/mL] | MBC [4] [µg/mL] | MBC/MIC [4] | MBC (MRSA (ATCC43300) [5]) [µg/mL] | MBC/MIC (MRSA (ATCC43300) [5]) | MBC (MRSA (NCIM 5021) [6]) [µg/mL] | MBC/MIC (MRSA (NCIM 5021) [6]) | IC50 against E. coli ParE enzyme (E. coli ParE enzyme) [µg/mL] | Minimum inhibitory concentration (MIC) K. p [7] | Minimum inhibitory concentration (MIC) P. a [8] | Minimum inhibitory concentration (MIC) E. c [9] | Minimum inhibitory concentration (MIC) S. e [10] | Minimum inhibitory concentration (MIC) S. a [11] | Minimum inhibitory concentration (MIC) B. s [12] | Minimum inhibitory concentration (MIC) M. t [13] | also measured
1 | O=C(COc1ccccc1NC(=O)CCl)Nc1ccc(S(=O)(=O)O)cc1 [Compound 6] | 1.56 ± 0.30 (≈ 3.91 µM) | 1.86 ± 0.10 (≈ 4.66 µM) | 1.71 ± 0.21 (≈ 4.29 µM) | 3.7 ± 0.12 (≈ 9.28 µM) | 3 | 4.56 ± 0.08 (≈ 11.4 µM) | 3 | 7.39 ± 0.18 (≈ 18.5 µM) | 4 | 1.19 (≈ 2.98 µM) | 0.78 | 0.64 | 0.86 | 7.89 | 5.23 | 3.56 | 15.23 | –
2 | O=C(COc1ccccc1NC(=O)CCl)Nc1cccc(Cl)c1 [Compound 10] | 0.83 ± 0.05 (≈ 2.35 µM) | 0.82 ± 0.03 (≈ 2.32 µM) | 0.88 ± 0.10 (≈ 2.49 µM) | 0.83 ± 0.05 (≈ 2.35 µM) | 1 | 0.88 ± 0.10 (≈ 2.49 µM) | 1 | 0.82 ± 0.03 (≈ 2.32 µM) | 1 | 1.84 (≈ 5.21 µM) | 14.70 | 10.81 | 7.07 | 1.95 | 0.92 | 1.97 | 5.26 | –
3 | O=C(COc1ccccc1NC(=O)CCl)Nc1cc(Cl)c(Cl)cc1Cl [Compound 11] | 0.97 ± 0.01 (≈ 2.3 µM) | 1.79 ± 0.16 (≈ 4.24 µM) | 0.84 ± 0.05 (≈ 1.99 µM) | 0.97 ± 0.01 (≈ 2.3 µM) | 1 | 0.84 ± 0.05 (≈ 1.99 µM) | 1 | 7.18 ± 0.15 (≈ 17 µM) | 4 | 1.81 (≈ 4.29 µM) | 4.43 | 9.33 | 7.98 | 1.33 | 0.68 | 0.94 | 4.71 | –
4 | COc1ccc(C(=O)NNC(=O)COc2ccccc2NC(=O)CCl)cc1 [Compound 13] | 2.60 ± 0.26 (≈ 6.64 µM) | 8.36 ± 0.30 (≈ 21.3 µM) | 2.47 ± 0.46 (≈ 6.3 µM) | 9.43 ± 0.11 (≈ 24.1 µM) | 4 | – | – | – | – | 2.73 (≈ 6.97 µM) | 0.89 | 1.25 | 1.92 | 4.15 | 3.28 | 7.10 | 1.33 | –
5 | O=C(COc1ccccc1NC(=O)CCl)NNC(=O)c1ccccc1Cl [Compound 15] | 0.98 ± 0.07 (≈ 2.47 µM) | 5.60 ± 0.36 (≈ 14.1 µM) | 1.51 ± 0.49 (≈ 3.81 µM) | – | – | 3.18 ± 0.32 (≈ 8.03 µM) | 2 | – | – | 1.33 (≈ 3.36 µM) | 1.89 | 1.45 | 1.63 | 0.64 | 0.62 | 0.67 | 3.52 | –
6 | O=C(COc1ccccc1NC(=O)CCl)NNC(=O)c1ccncc1 [Compound 16] | 2.60 ± 0.28 (≈ 7.17 µM) | 5.65 ± 0.27 (≈ 15.6 µM) | 2.74 ± 0.19 (≈ 7.55 µM) | 9.12 ± 0.11 (≈ 25.1 µM) | 4 | – | – | – | – | 2.62 (≈ 7.22 µM) | 2.56 | 3.23 | 2.12 | 7.24 | 8.99 | 11.59 | 1.79 | –
7 | COc1ccc(OCC(=O)Nc2ccc(Cl)cc2)cc1 [Compound 28] | 1.88 ± 0.11 (≈ 6.44 µM) | 2.70 ± 0.22 (≈ 9.26 µM) | 2.04 ± 0.16 (≈ 6.99 µM) | 3.85 ± 0.25 (≈ 13.2 µM) | 2 | – | – | 10.62 ± 0.44 (≈ 36.4 µM) | 4 | 1.93 (≈ 6.62 µM) | 1.98 | 5.55 | 0.88 | 0.71 | 1.21 | 2.04 | 1.47 | –
8 | C[C@H]1c2cccc(O)c2C(=O)C2=C(O)[C@]3(O)C(=O)C(C(N)=O)=C(O)[C@@H](N(C)C)[C@@H]3[C@@H](O)[C@@H]21 [Doxycycline] | – | – | – | – | – | – | – | – | – | – | – | – | – | – | – | – | – | FIC A (E. coli; [14]): 0.0702; FIC A (E. coli; [15]): 0.1813; FIC B (E. coli; [16]): 0.0273; FIC B (E. coli; [17]): 0.0262; Inference (E. coli; drug combined with compound 5): Synergistic (synergistic when the ΣFICs is ≤ 0.5); ΣFIC A + FIC B (E. coli; drug combined with compound 5): 0.0975; Inference (E. coli; drug combined with compound 21): Synergistic (synergistic when the ΣFICs is ≤ 0.5); ΣFIC A + FIC B (E. coli; drug combined with compound 21): 0.2075
9 | CO[C@H]1/C=C/O[C@@]2(C)Oc3c(C)c(O)c4c(O)c(c(/C=N/N5CCN(C)CC5)c(O)c4c3C2=O)NC(=O)/C(C)=C\C=C\[C@H](C)[C@H](O)[C@@H](C)[C@@H](O)[C@@H](C)[C@H](OC(C)=O)[C@@H]1C [Rifampicin] | – | – | – | – | – | – | – | – | – | – | – | – | – | – | – | – | – | FIC A (E. coli; [14]): 0.1202; FIC A (E. coli; [15]): 0.1942; FIC B (E. coli; [16]): 0.0524; FIC B (E. coli; [17]): 0.1281; Inference (E. coli; drug combined with compound 5): Synergistic (synergistic when the ΣFICs is ≤ 0.5); ΣFIC A + FIC B (E. coli; drug combined with compound 5): 0.1726; Inference (E. coli; drug combined with compound 21): Synergistic (synergistic when the ΣFICs is ≤ 0.5); ΣFIC A + FIC B (E. coli; drug combined with compound 21): 0.3223

— PMC8247773, “Benzohydrazide and Phenylacetamide Scaffolds: New Putative ParE Inhibitors” (Frontiers in Bioengineering and Biotechnology, 2021)
